Assay results reported in patent US5583155A, “6-amino-1,2-benzopyrones useful for treatment of viral diseases” (Octamer, Inc., priority 1994, dated 1996).
Several values for one entry are separate records, joined by “and”; a condition that tells them apart may be missing. Equal values may be shown once.

How the values were obtained:
ADPRT [1] = settings: Proc. Nat. Acad. Sci. (USA), 84:1107 (1987); cited from earlier work
ADPRT [2] = assay: Binding to ADPRT; settings: 6-nitroso oxidation product
CMV = settings: cited from earlier work
oris DNA of HSV-1 = assay: Nitrocellulose filter binding to HSV-1 oris DNA; settings: input oris DNA 8,000/sample
Protocol: This example illustrates HSV DNA binding at the site of replication (oris) initiation at ADPRT.
The 230 bp XbaI-HindIII oris DNA of HSV-1 was isolated from plasmid pKC4 and radioactively labeled with [32P]dCTP by fill-in reaction with the Klenow form of E. coli DNA polymerase. Labeled DNA fragments were purified as previously described in J. Virol., 63:2773 (1989).
Nitrocellulose filters (Schleicher and Schuell, BA 85, […] pore size, 27 mm diameter) were presoaked for 60 minutes in binding buffer (250 mM Tris-Cl, pH 8.0, 100 mM MgCl2, 1000 mM NaCl, 0.6 mM DTT, 0.1 mg/ml BSA, 0.1 mM PMSF and 0.1 mM TLCK). 5 ul of [32P] oris DNA was added to 210 ul of cold binding buffer and incubated for 1 minute. 2 ul of either ADPRT (200 ng) or HSV-1 infected Vero cell extract (Vero(F), 2 ug) was then added to the DNA solution and incubated for 10 minutes at 25° C. Samples were transferred to ice, followed by filtration through the nitrocellulose filters. The filters were then washed four times with cold wash buffer containing 25 mM Tris-Cl, pH 8.0, 10 mM MgCl2, 0.5 mM DTT, 100 mM NaCl, 5% DMSO. The filters were dried and the amount of radioactive material bound to the filters was determined by scintillation spectrophotometry.

Compound: O=c1ccc2ccccc2o1 [1,2-benzopyrone]
- inhibition of ADPRT (ADPRT [1]): inhibitory ligand

Compound: O=Nc1ccc2oc(=O)ccc2c1 [6-NBP, 6-nitroso-1,2-benzopyrone]
- binding to zinc-fingers of ADPRT (ADPRT [2]): binds specifically and with high affinity

Compound: Nc1nc2c(ncn2COCCO)c(=O)[nH]1 [acyclovir]
- CMV sensitivity (CMV): CMV is resistant to acyclovir

Compound: ADPRT
- % Specific Bound (oris DNA of HSV-1): 78.6% and ~80%
- CPM Bound to Filter (oris DNA of HSV-1; average of duplicate samples): 6384 CPM
